In publication PMC5733122, “Purification, Characterization, and Mode of Action of Pentocin JL-1, a Novel Bacteriocin Isolated from Lactobacillus pentosus, against Drug-Resistant Staphylococcus aureus” (BioMed Research International, 2017):

Experiment: pH stability, residual antibacterial activity
Type: physicochemical
Conditions: 1 h; for Residual inhibitory activity (inhibition zone diameter, mm): 15 μg/mL in 0.05% acetic acid, agar-well diffusion vs MRSA GIM 1.771, mean ± SD, triplicate; for Residual inhibitory activity (inhibition zone diameter, mm) / Residual inhibitory activity (%): readjusted to pH 5.5; for Residual inhibitory activity (%): 15 μg/mL, vs MRSA GIM 1.771, relative to control pH 5.5
Experimental: To determine pH stability, lyophilized purified pentocin JL-1 was dissolved in 0.05% (w/v) acetic acid at 15 μg/mL and was adjusted with 1.0 M HCl or 1.0 M NaOH to different pH values of 2.0, 3.0, 4.0, 5.0, 6.0, 7.0, 8.0, 9.0, and 10.0. Then the above samples were incubated at 37°C for 1 h and were adjusted to pH 5.5 with 1.0 M HCl or 1.0 M NaOH.
The residual antibacterial activities of the above samples were calculated using the agar-well diffusion test with MRSA GIM 1.771 as the indicator strain. […] Lyophilized pentocin JL-1 dissolved in 0.05% (w/v) acetic acid at 15 μg/mL with pH 5.5 was used as a control in all assays.

Substance: VAKVAR [pentocin JL-1, novel bacteriocin produced by Lactobacillus pentosus JL-1, purified by four-step chromatography, molecular mass 2987.23 Da, cationic and hydrophobic peptide]
- pH range tolerated / stable (37°C, no significant differences in antimicrobial activity (p > 0.05)): 5–7
- Residual inhibitory activity (inhibition zone diameter, mm) (pH 2.0, 37°C): 15.7 ± 1.4 mm
- Residual inhibitory activity (%) (pH 2.0, 37°C): 65.69^∗ %
- Residual inhibitory activity (inhibition zone diameter, mm) (pH 3.0, 37°C): 16.2 ± 1.8 mm
- Residual inhibitory activity (%) (pH 3.0, 37°C): 67.78^∗ %
- Residual inhibitory activity (inhibition zone diameter, mm) (pH 4.0, 37°C): 16.8 ± 1.2 mm
- Residual inhibitory activity (%) (pH 4.0, 37°C): 70.29^∗ %
- Residual inhibitory activity (inhibition zone diameter, mm) (pH 5.0, 37°C): 23.9 ± 0.4 mm
- Residual inhibitory activity (%) (pH 5.0, 37°C): 100.00%
- Residual inhibitory activity (inhibition zone diameter, mm) (pH 6.0, 37°C): 23.9 ± 0.8 mm
- Residual inhibitory activity (%) (pH 6.0, 37°C): 100.00%
- Residual inhibitory activity (inhibition zone diameter, mm) (pH 7.0, 37°C): 23.6 ± 0.6 mm
- Residual inhibitory activity (%) (pH 7.0, 37°C): 98.74%
- Residual inhibitory activity (inhibition zone diameter, mm) (pH 8.0, 37°C): 14.6 ± 0.3 mm
- Residual inhibitory activity (%) (pH 8.0, 37°C): 61.09^∗ %
- Residual inhibitory activity (inhibition zone diameter, mm) (pH 9.0, 37°C): 12.9 ± 0.9 mm
- Residual inhibitory activity (%) (pH 9.0, 37°C): 53.97^∗ %
- Residual inhibitory activity (inhibition zone diameter, mm) (pH 10.0, 37°C): 12.5 ± 1.6 mm
- Residual inhibitory activity (%) (pH 10.0, 37°C): 52.30^∗ %
